The text below walks through data of patent EP0356223A2, “HIV protease inhibitors useful for the treatment of aids” (MERCK & CO. INC., priority 1988, dated 1990).

The structures appear in SMILES notation. pIC50: −log10 of the molar value.

The assay deals with T1, HIV protease (Human immunodeficiency virus type 1 group M subtype B, UniProt P04585).
T1 construct: the protease expressed in Eschericia coli; made in house; host or cells: Escherichia coli
Description: Assay for Inhibition of Microbial Expressed Viral Protease. Format: biochemical. The note with it: protease expressed in Eschericia coli; peptide substrate Val-Ser-Gln-Asn-(betanapthyl)Ala-Pro-lie-Val 0.5 mg/ml; 50 mM Na acetate, pH 5.5, 30° C, 1 hr; HPLC readout. As for the experimental part: Assay for Inhibition of Microbial Expressed Viral Protease
Inhibition studies of the reaction of the protease expressed in Eschericia coli with a peptide substrate [Val-Ser-Gln-Asn-(betanapthyl)Ala-Pro-lie-Val, 0.5 mg/ml at the time the reaction is initiated] were in 50 mM Na acetate, pH 5.5, at 30° C for 1 hr. Various concentrations of inhibitor in 1.0 ul DMSO were added to 25 ul of the peptide solution in water. The reaction is initiated by the addition of 15 ul of 0.33 nM protease (0.11 ng) in a solution of 0.133 M Na acetate pH 5.5 and 0.267% bovine serum albumin. The reaction was quenched with 160 ul of 5% phosphoric acid. Products of the reaction were separated by HPLC (VYDAC wide pore 5 cm C-18 reverse phase, acetonitrile gradient, 0.1% phosphoric acid). The extent of inhibition of the reaction was determined from the peak heights of the products.
In general, pIC50 refers to −log10 of the IC50, conventionally taken in molar units. High values mean a low IC50, low ones a high IC50. In turn, `O=C(O)CCC(=O)N[C@@H](Cc1ccccc1)[C@@H](O)C[C@@H](Cc1ccccc1)C(=O)N[C@H]1c2ccccc2C[C@H]1O` [Compound G, N-(2(R)-hydroxy-1 (S)-indanyl)-N'-(succinoyl)-5(S)-amino-4(S)-hydroxy-6-phenyl-2(R)-(phenylmethyl)-hexanamide] had a pIC50 of 8.00 to 9.30.
To `CS(=O)(=O)N[C@@H](Cc1ccccc1)[C@@H](O)C[C@@H](Cc1ccccc1)C(=O)N[C@H]1c2ccccc2C[C@H]1O` [Compound H, N-(2(R)-hydroxy-1 (S)-indanyl)-N'-(methanesulfonyl)-5(S)-amino-4(S)-hydroxy-6-phenyl-2(R)-(phenylmethyl)-hexanamide] belongs 8.00 to 9.30.
To `O=C1CC[C@@H](C(=O)N[C@@H](Cc2ccccc2)[C@@H](O)C[C@@H](Cc2ccccc2)C(=O)N[C@H]2c3ccccc3C[C@H]2O)O1` [Compound J, N-(2(R)-hydroxy-1 (S)-indanyl)-N'-(5-oxo-2(S)-tetrahydrofuranylcarbonyl)-5(S)-amino-4(S)-hydroxy-6-phenyl-2(R)-(phenylmethyl)hexanamide] belongs 8.00 to 9.30; to `CC[C@H](C)[C@H](NC(=O)[C@H](Cc1ccccc1)C[C@H](O)[C@H](Cc1ccccc1)NC(=O)CCC(=O)O)C(=O)NCc1ccccc1` [Compound F, N-benzyl-N'-(succinoyl)-5(S)-amino-4(S)-hydroxy-6-phenyl-2(R)-(phenylmethyl)hexanoyl isoleucyl amide], 8.00 to 9.30.
